The target of this assay is T1, 3-hydroxy-3-methyl-glutaryl-coenzyme A (HMG-CoA) reductase (Rattus norvegicus, UniProt P51639).
T1 construct: the livers were removed from the animals and placed on ice; from tissue; host or cells: liver of male Rico rats fed colestyramine; 100,000 g (microsomal) pellet, frozen at -78° C
T1 sequence (P51639 1-887): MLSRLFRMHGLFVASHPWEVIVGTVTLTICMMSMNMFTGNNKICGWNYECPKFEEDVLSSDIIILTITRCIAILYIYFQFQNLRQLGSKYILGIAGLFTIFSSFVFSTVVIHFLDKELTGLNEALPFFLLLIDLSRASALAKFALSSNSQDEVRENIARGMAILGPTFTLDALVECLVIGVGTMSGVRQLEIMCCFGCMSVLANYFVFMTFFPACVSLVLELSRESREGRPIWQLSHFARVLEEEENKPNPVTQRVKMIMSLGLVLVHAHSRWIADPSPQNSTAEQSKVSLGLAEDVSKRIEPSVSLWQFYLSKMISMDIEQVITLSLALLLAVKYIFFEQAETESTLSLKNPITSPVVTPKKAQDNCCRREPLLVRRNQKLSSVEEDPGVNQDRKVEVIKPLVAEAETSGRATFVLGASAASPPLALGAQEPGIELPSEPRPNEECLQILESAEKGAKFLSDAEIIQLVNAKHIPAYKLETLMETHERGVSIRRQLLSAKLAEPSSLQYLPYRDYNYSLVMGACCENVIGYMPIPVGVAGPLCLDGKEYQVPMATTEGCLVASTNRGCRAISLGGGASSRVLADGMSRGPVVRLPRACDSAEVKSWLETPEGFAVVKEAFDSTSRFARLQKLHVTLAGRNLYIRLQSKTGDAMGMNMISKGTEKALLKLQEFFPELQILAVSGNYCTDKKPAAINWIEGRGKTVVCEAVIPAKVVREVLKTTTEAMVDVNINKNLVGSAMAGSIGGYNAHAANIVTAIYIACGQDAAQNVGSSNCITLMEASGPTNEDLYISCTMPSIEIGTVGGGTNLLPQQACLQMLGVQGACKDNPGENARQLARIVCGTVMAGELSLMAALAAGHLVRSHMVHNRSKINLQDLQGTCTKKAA
In words: enzyme activity determination, inhibition of HMG-CoA reductase relative to mevinolin. Format: biochemical, Male Rico rats (liver). The following applies: relative inhibitory potency; IC50 of reference mevinolin set at 1 and compared with simultaneously determined IC50 of test compound; 20 min pre-incubation, 60 min at 37° C. The method, then: The enzyme activity determination was carried out as modified by G. C. Ness et al., Archives of Biochemistry and Biophysics 197, 493-499 (1979). Male Rico rats (body weight 300-400 g) were treated with altromin powdered feed, to which 40 g of colestyramine/kg of feed had been added, for 11 days. After decapitation, the livers were removed from the animals and placed on ice. The livers were comminuted and homogenized 3 times in a Potter-Elvejem homogenizsr in 3 volumes of 0.1 M sucrose, 0.05 M KCl, 0.04 M Kx Hy phosphate, 0.03 M ethylene-diaminetetraacetic acid, 0.002 M dithiothreitol (SPE) buffer pH 7.2. The mixture was then centrifuged at 15,000 g for 15 minutes and the sediment was discarded. The supernatant was sedimented at 100,000 g for 75 minutes. The pellet was taken up in 1/4 volumes of SPE buffer, homogenized again and then centrifuged again at 100,000 g for 60 minutes. The pellet was taken up using a 5-fold amount of its volume of SPE buffer, homogenized and frozen and stored at -78° C. (=enzyme solution).
For testing, the test compounds (or mevinolin as a reference substance) were dissolved in dimethylformamide with the addition of 5 vol. % of 1 N NaOH and employed in the enzyme test using 10 μl in various concentrations. The test was begun after 20 minutes pre-incubation of the compounds with the enzyme at 37° C. The test mixture amounted to 0.380 ml and contained 4 μmol of glucose 6-phosphate, 1.1 mg of bovine serum albumin, 2.1 μmol of dithiothreitol, 0.35 μmol of NADP, 1 unit of glucose 6-phosphate dehydrogenase, 35 μmol of Kx Hy phosphate pH 7.2, 20 μl of enzyme preparation and 56 nmol of 3-hydroxy-3-methyl--glutaryl coenzyme A (glutaryl-3-^14 C) of 100,000 dpm.
After an incubation of 60 minutes at 37° C., the mixture was centrifuged and 600 μl of the supernatant was applied to a 0.7×4 cm column packed with a 5-chloride 100-200 mesh (anion exchanger). The column was washed with 2 ml of distilled water and 3 ml of Aquasol was added to the runnings plus washing water and counted in an LKB scintillation counter. IC50 values were determined by intrapolation by plotting the percentage inhibition against the concentration of the compound in the test. In order to determine the relative inhibitory potency, the IC50 value of the reference substance mevinolin was set at 1 and compared with the simultaneously determined IC50 value of the test compound.

As for `COC(=O)C[C@H](O)C[C@H](O)/C=C/c1c(C(C)C)nc2c(ccn2C)c1-c1ccc(F)cc1` (relative stereo) [Example 1b], the “in vitro relative activity (Mevinolin = 1)” value (shortened to “in vitro relative activity”) is 3.

For `COC(=O)C[C@H](O)C[C@H](O)/C=C/c1c(C(C)C)nc2c(ccn2Cc2cccnc2)c1-c1ccc(F)cc1` (relative stereo) [Example 1i], the “in vitro relative activity” value is 9.

As for `CC(C)c1nc2c(ccn2C(C)C)c(-c2ccc(F)cc2)c1/C=C/[C@@H](O)C[C@@H](O)CC(=O)O` (relative stereo) [Example 2c], the “in vitro relative activity” value came out at 3.

`C=CCn1ccc2c(-c3ccc(F)cc3)c(/C=C/[C@@H](O)C[C@@H](O)CC(=O)O)c(C(C)C)nc21` (relative stereo) [Example 2h]: the “in vitro relative activity” value is listed as 10.

On to `COC(=O)C[C@H](O)C[C@H](O)/C=C/c1c(C(C)C)nc2c(ccn2CCc2ccccc2)c1-c1ccc(F)cc1` (relative stereo) [Example 1f], for which the “in vitro relative activity” value came to 17.

Consider `COC(=O)C[C@H](O)C[C@H](O)/C=C/c1c(C(C)C)nc2c(ccn2CC#N)c1-c1ccc(F)cc1` (relative stereo) [Example 1d], for which the “in vitro relative activity” value turned out to be 27.

Turning to `CC(C)c1nc2c(ccn2CCc2ccccc2)c(-c2ccc(F)cc2)c1/C=C/[C@@H](O)C[C@@H](O)CC(=O)O` (relative stereo) [Example 2f], the “in vitro relative activity” value amounted to 10.

Regarding `C=CCn1ccc2c(-c3ccc(F)cc3)c(/C=C/[C@@H](O)C[C@@H](O)CC(=O)OC)c(C(C)C)nc21` (relative stereo) [Example 1h], the “in vitro relative activity” value is given as 33.

With `CC(C)c1nc2[nH]ccc2c(-c2ccc(F)cc2)c1/C=C/[C@@H](O)C[C@@H](O)CC(=O)O` (relative stereo) [Example 2a, Sodium erythro-(E)-7-[4-(4-fluorophenyl)-6-isopropyl-1H-pyrrolo[2,3-b]pyridin-5-yl]-3,5-dihydroxy-hept-6-enoate], the “in vitro relative activity” value was 3.

Regarding `COC(=O)C[C@H](O)C[C@H](O)/C=C/c1c(C(C)C)nc2[nH]ccc2c1-c1ccc(F)cc1` (relative stereo) [Example 1a, Methyl erythro-(E)-7-[4-(4-fluorophenyl)-6-isopropyl-1H-pyrrolo[2,3-b]pyridin-5-yl]3,5-dihydroxy-hept-6-enoate], the “in vitro relative activity” value is given as 3.

Consider `CC(C)c1nc2c(ccn2C)c(-c2ccc(F)cc2)c1/C=C/[C@@H](O)C[C@@H](O)CC(=O)O` (relative stereo) [Example 2b], for which the “in vitro relative activity” value is 3.

On to `C#CCn1ccc2c(-c3ccc(F)cc3)c(/C=C/[C@@H](O)C[C@@H](O)CC(=O)OC)c(C(C)C)nc21` (relative stereo) [Example 1e], for which the “in vitro relative activity” value is on record as 17.

Take `COC(=O)C[C@H](O)C[C@H](O)/C=C/c1c(C(C)C)nc2c(ccn2Cc2ccccc2)c1-c1ccc(F)cc1` (relative stereo) [Example 1g]: the “in vitro relative activity” value turned out to be 4.

As for `CC(C)c1nc2c(ccn2Cc2ccccc2)c(-c2ccc(F)cc2)c1/C=C/[C@@H](O)C[C@@H](O)CC(=O)O` (relative stereo) [Example 2g], the “in vitro relative activity” value stood at 2.

Turning to `COC(=O)C[C@H](O)C[C@H](O)/C=C/c1c(C(C)C)nc2c(ccn2C(C)C)c1-c1ccc(F)cc1` (relative stereo) [Example 1c], the “in vitro relative activity” value amounted to 13.

In the case of `COC(=O)C[C@H](O)C[C@H](O)/C=C/c1c(C(C)C)nc2c(ccn2CCC#N)c1-c1ccc(F)cc1` (relative stereo) [Example 1j], the “in vitro relative activity” value amounted to 24.
